This is an account of results in PubChem BioAssay (NCI).

Several values for one entry are separate records, joined by “and”; a condition that tells them apart may be missing. Identical values can stand only once.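 Five compound concentrations were applied to cells in 96-well plates for 48 hours; endpoints were derived by simple linear interpolation of the resulting dose-response curve. GI50 is the concentration that inhibits growth by half. Definition used: TGI = concentration required for complete inhibition of growth.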

Some test systems named below: NCI-H460 lung; SNB-75 CNS; IGROV1 ovarian; HT29 colon; CAKI-1 renal; NCI/ADR-RES ovarian; KM12 colon; HL-60(TB) leukemia; CCRF-CEM leukemia; SR leukemia.
Holding throughout (assay): NCI tumour cell line growth inhibition, 48 h

Take `C=C(c1ccc(C(=O)NCCCn2ccnc2)cc1)c1cc2c(cc1C)C(C)(C)CCC2(C)C`: the GI50 with NCI-H460 lung is 0.87 µM; in the test with SNB-75 CNS, 2.46 µM; with IGROV1 ovarian it was 1.92 µM; in the test on HT29 colon, 0.509 µM; with CAKI-1 renal, 1.47 µM; in the test on NCI/ADR-RES ovarian, 0.0807 µM. Also, the GI50 was 0.37 µM in the test with KM12 colon and 1.06 µM with HL-60(TB) leukemia. In addition, the TGI is 10.5 µM in the test on NCI-H460 lung; 7.82 µM in the test on SNB-75 CNS; over 32 µM in the test with IGROV1 ovarian; 6.8 µM in the test with HT29 colon; over 51.2 µM with CAKI-1 renal; over 36.1 µM in the test with NCI/ADR-RES ovarian. The TGI with KM12 colon is over 50.6 µM; in the test on HL-60(TB) leukemia, 3.93 µM.

Regarding `CC1(O)CC2C(CC1SCc1ccccc1)C2(C)C` (stereo not drawn), the TGI was 57.8 µM and 27.7 µM in the test on NCI-H460 lung; 92.4 µM and 28.6 µM with SNB-75 CNS; > 100 µM and 28.9 µM with IGROV1 ovarian; 49.1 µM and 29.9 µM in the test on HT29 colon; 32 µM and 25.2 µM in the test with CAKI-1 renal; 50.8 µM and 34.6 µM in the test with KM12 colon. Further, the TGI with HL-60(TB) leukemia was > 100 µM and 33.8 µM; in the test on CCRF-CEM leukemia it was > 100 µM and 42.2 µM. Besides, the GI50 in the test on SNB-75 CNS was 33.8 µM and 15.3 µM; with IGROV1 ovarian, 38.8 µM and 15.4 µM; with HL-60(TB) leukemia, 28.3 µM and 10.2 µM; with CCRF-CEM leukemia, 37.4 µM and 14.8 µM.

For the compound `CNC(=O)N(CCCCC(NC(C)=O)C(=O)NCc1ccccc1)Cc1ccccc1` (stereo not drawn), the TGI with NCI-H460 lung, with SNB-75 CNS, with IGROV1 ovarian, in the test on HT29 colon, with CAKI-1 renal and in the test on KM12 colon was over 100 µM each time. In the test on CCRF-CEM leukemia, this compound registered a TGI of over 100 µM.

With `COc1cc(COC(=O)N(C)[C@@H](Cc2ccccc2)C(=O)O)c([N+](=O)[O-])cc1OC`, the TGI in the test with NCI-H460 lung, with SNB-75 CNS, in the test with IGROV1 ovarian, in the test with HT29 colon, in the test on NCI/ADR-RES ovarian and in the test on KM12 colon was over 100 µM each time. For the same compound, the TGI in the test on HL-60(TB) leukemia and in the test on CCRF-CEM leukemia was over 100 µM in each case.

Turning to `Fc1nc(Sc2ncnc3nc[nH]c23)nc(-c2c3ccccc3c3sc4ccccc4n23)n1`, the TGI in the test with NCI-H460 lung, in the test with SNB-75 CNS, in the test with IGROV1 ovarian, in the test on HT29 colon, with CAKI-1 renal and with NCI/ADR-RES ovarian was over 100 µM in each case. Besides, the TGI with KM12 colon, with HL-60(TB) leukemia and in the test on CCRF-CEM leukemia was over 100 µM in each case.

With `CCOC(=O)C(=O)Nc1nc2ccc(OC)cc2s1`, the TGI with NCI-H460 lung, in the test on SNB-75 CNS, in the test on IGROV1 ovarian, in the test on HT29 colon, in the test with CAKI-1 renal and with KM12 colon was over 100 µM each time. For the same compound, the TGI in the test with HL-60(TB) leukemia and with CCRF-CEM leukemia was over 100 µM throughout.

Consider `COc1cc([C@H]2c3cc4c(cc3[C@H](NCc3ccc(F)cc3)C3COC(=O)[C@H]32)OCO4)cc(OC)c1O` (stereo partly drawn), for which the TGI in the test with NCI-H460 lung came out at 12.3 µM; with SNB-75 CNS, 9.16 µM; in the test with IGROV1 ovarian it was 34 µM; in the test on HT29 colon it was 27 µM; in the test on KM12 colon, 15.1 µM; with HL-60(TB) leukemia, 4.7 µM. In the test on CCRF-CEM leukemia, this compound showed a TGI of over 100 µM.

In the case of `COc1ccc(C2C(C(=O)O)=C(COC(C)=O)Oc3cc4c(cc32)OCO4)c(OC)c1` (stereo not drawn), the TGI with NCI-H460 lung, in the test with SNB-75 CNS, with IGROV1 ovarian, with HT29 colon, in the test with CAKI-1 renal and in the test on HL-60(TB) leukemia was over 100 µM in each case. For the same compound, in the test with CCRF-CEM leukemia, the TGI was over 100 µM.

On to `CCOC(=O)c1cnc2c(ccc3ncccc32)c1OCC`, for which the TGI in the test on NCI-H460 lung, in the test with SNB-75 CNS, in the test with IGROV1 ovarian, in the test with HT29 colon, in the test on KM12 colon and in the test on HL-60(TB) leukemia was over 100 µM throughout. Further, the TGI in the test with SR leukemia and in the test with CCRF-CEM leukemia was over 100 µM in each case.

As for `O=S1(=O)CS(=O)(=O)OCCCCCO1`, the TGI in the test on NCI-H460 lung, in the test with SNB-75 CNS, in the test on IGROV1 ovarian, with HT29 colon, with CAKI-1 renal and with KM12 colon was over 100 µM in each case. For the same compound, the TGI in the test with CCRF-CEM leukemia was over 100 µM.

Regarding `COc1ccc(C2=NOC3=c4ccccc4=CSC3=C2c2ccccc2)cc1`, the GI50 in the test with NCI-H460 lung was 21.5 µM; with SNB-75 CNS, over 100 µM; with IGROV1 ovarian, 45.8 µM; with HT29 colon, 37.1 µM; in the test on CAKI-1 renal, 64.7 µM; in the test with NCI/ADR-RES ovarian, 41.7 µM. Besides, the figures for the GI50 in the test on KM12 colon, in the test on HL-60(TB) leukemia and in the test with CCRF-CEM leukemia were 57.7 µM, 39.7 µM and 21.7 µM, respectively. Also, the TGI is 89 µM in the test on NCI-H460 lung; over 100 µM with SNB-75 CNS; over 100 µM in the test with IGROV1 ovarian; over 100 µM with HT29 colon; over 100 µM with CAKI-1 renal; over 100 µM with NCI/ADR-RES ovarian. For the same compound, the TGI with KM12 colon, in the test on HL-60(TB) leukemia and in the test with CCRF-CEM leukemia was over 100 µM throughout.

Take `CN(C)CCC(/C=C/c1ccccc1)=N\Nc1c(F)c(F)c(F)c(F)c1F`: the TGI in the test with NCI-H460 lung was over 100 µM; with SNB-75 CNS, over 100 µM; with IGROV1 ovarian, over 100 µM; in the test on HT29 colon, over 100 µM; in the test on KM12 colon, over 100 µM; in the test with HL-60(TB) leukemia it was 37.8 µM. Further, the TGI in the test on SR leukemia and in the test with CCRF-CEM leukemia was over 100 µM throughout.

Consider `COc1ccc2c(c1)CCC1C2CCC2(C)C(NC(=O)CCCCC3CCSS3)CCC12` (stereo not drawn), for which the GI50 in the test on NCI-H460 lung is 4.84 µM; in the test with SNB-75 CNS, 18.2 µM; in the test on IGROV1 ovarian it was 4.92 µM; in the test with HT29 colon, 4.3 µM; in the test with CAKI-1 renal, 23.9 µM; in the test with NCI/ADR-RES ovarian it was over 100 µM. Besides, the GI50 in the test on KM12 colon is 4.54 µM; with HL-60(TB) leukemia, 3.75 µM; with CCRF-CEM leukemia, 6.26 µM. Besides, the TGI was 93.3 µM in the test with NCI-H460 lung; over 100 µM in the test with SNB-75 CNS; over 100 µM in the test on IGROV1 ovarian; 39.2 µM in the test on HT29 colon; over 100 µM in the test on CAKI-1 renal; over 100 µM in the test with NCI/ADR-RES ovarian. In addition, the TGI in the test on KM12 colon, with HL-60(TB) leukemia and with CCRF-CEM leukemia was over 100 µM throughout.
